# Tests used:
# [1] = system: hiPSC-CMs (iCell2 Cardiomyocytes) 2D monolayers; assay: Membrane potential (action potential) recordings with FluoVolt voltage-sensitive dye on the CellOPTIQ platform; type: cell-based, human; details: for activity at 0.01 µM / activity at 0.03 µM / activity at 0.1 µM / activity at 0.3 µM: Homo sapiens, Cardiomyocyte, 0.5 h, 30 min, delta over DMSO 0.1%
# How it was run: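 iCell2 hiPSC-CM monolayers (50,000 cells/well on fibronectin or Matrix Plus, days 5–6) were loaded with FluoVolt (1:1000, 20 min, 37 °C) and imaged at 37 °C with 470 nm excitation and 510–560 nm emission sampled at 10 kHz. Spontaneous action potentials were recorded for 10 s at baseline and 30 min after drug, with one of four concentrations per well (n = 8).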
# [2] = system: hiPSC-CMs (iCell2 Cardiomyocytes) 2D monolayers; assay: Contractility measurements using video imaging (ContractilityTool / MUSCLEMOTION); type: cell-based, human; details: for activity at 0.01 µM / activity at 0.03 µM / activity at 0.1 µM / activity at 0.3 µM: Homo sapiens, Cardiomyocyte, 0.5 h, 30 min, delta over DMSO 0.1%
# How it was run: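 Monolayers on fibronectin or Matrix Plus coating, tested on days 5–6 in serum-free medium. Four concentrations, one per well, n = 8, with vehicle control.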
# [3] = 300 nM, both 2D systems, positive control
# [4] = FM monolayer, read-out: APD30 (%DD)
# [5] = FM monolayer, read-out: APD90 (%DD)
# [6] = FM monolayer, read-out: CL (%DD)
# [7] = FM monolayer, read-out: Trise (%DD)
# [8] = MM monolayer, read-out: APD30 (%DD)
# [9] = MM monolayer, read-out: APD90 (%DD)
# [10] = MM monolayer, read-out: CL (%DD)
# [11] = MM monolayer, read-out: Trise (%DD)
# [12] = FM monolayer, read-out: CtAmp (%DD)
# [13] = FM monolayer, read-out: CtD50 (%DD)
# [14] = MM monolayer, read-out: CtAmp (%DD)
# [15] = MM monolayer, read-out: CtD50 (%DD)
smiles,measurement,setting,value
CC(C)NCC(O)c1ccc(O)c(O)c1 (stereo not shown) [Isoprenaline],effect on APD90,[1]; [3],decreased
same,effect on spontaneous beat rate,[1]; [3],increased
same,activity at 0.01 µM,[1]; [4],97 ± 2%
same,activity at 0.01 µM,[1]; [5],94 ± 1.9%
same,activity at 0.01 µM,[1]; [6],90 ± 1.4%
same,activity at 0.01 µM,[1]; [7],80 ± 7.3%
same,activity at 0.03 µM,[1]; [4],85 ± 1.7%
same,activity at 0.03 µM,[1]; [5],77 ± 0.6%
same,activity at 0.03 µM,[1]; [6],74 ± 0.6%
same,activity at 0.03 µM,[1]; [7],97 ± 8.6%
same,activity at 0.1 µM,[1]; [4],68 ± 0.8%
same,activity at 0.1 µM,[1]; [5],60 ± 1%
same,activity at 0.1 µM,[1]; [6],56 ± 0.6%
same,activity at 0.1 µM,[1]; [7],106 ± 4.5%
same,activity at 0.3 µM,[1]; [4],62 ± 1%
same,activity at 0.3 µM,[1]; [5],52 ± 0.5%
same,activity at 0.3 µM,[1]; [6],49 ± 0.6%
same,activity at 0.3 µM,[1]; [7],106 ± 8.1%
same,activity at 0.01 µM,[1]; [8],92 ± 0.8%
same,activity at 0.01 µM,[1]; [9],96 ± 0.8%
same,activity at 0.01 µM,[1]; [10],90 ± 0.9%
same,activity at 0.01 µM,[1]; [11],146 ± 13.3%
same,activity at 0.03 µM,[1]; [8],83 ± 0.9%
same,activity at 0.03 µM,[1]; [9],86 ± 1%
same,activity at 0.03 µM,[1]; [10],77 ± 0.6%
same,activity at 0.03 µM,[1]; [11],115 ± 12.9%
same,activity at 0.1 µM,[1]; [8],68 ± 1.5%
same,activity at 0.1 µM,[1]; [9],68 ± 1.2%
same,activity at 0.1 µM,[1]; [10],63 ± 0.8%
same,activity at 0.1 µM,[1]; [11],93 ± 5.5%
same,activity at 0.3 µM,[1]; [8],62 ± 0.8%
same,activity at 0.3 µM,[1]; [9],61 ± 0.9%
same,activity at 0.3 µM,[1]; [10],56 ± 0.8%
same,activity at 0.3 µM,[1]; [11],129 ± 10.9%
same,effect on APD90 (in words),"[1]; both FM and MM monolayers, concentration not given",significantly decreased
same,effect on contraction duration,[2]; [3],decreased
same,activity at 0.01 µM,[2]; [12],94 ± 5.2%
same,activity at 0.01 µM,[2]; [13],94 ± 1%
same,activity at 0.03 µM,[2]; [12],90 ± 8.3%
same,activity at 0.03 µM,[2]; [13],88 ± 4.6%
same,activity at 0.1 µM,[2]; [12],125 ± 17.9%
same,activity at 0.1 µM,[2]; [13],76 ± 2.8%
same,activity at 0.3 µM,[2]; [12],68 ± 8.5%
same,activity at 0.3 µM,[2]; [13],58 ± 1.6%
same,activity at 0.01 µM,[2]; [14],123 ± 14.4%
same,activity at 0.01 µM,[2]; [15],96 ± 2.3%
same,activity at 0.03 µM,[2]; [14],112 ± 11.7%
same,activity at 0.03 µM,[2]; [15],88 ± 2.3%
same,activity at 0.1 µM,[2]; [14],121 ± 16.1%
same,activity at 0.1 µM,[2]; [15],68 ± 2.7%
same,activity at 0.3 µM,[2]; [14],105 ± 14.9%
same,activity at 0.3 µM,[2]; [15],57 ± 1.8%
